Measured values taken from patent US20220395500A1, “SMALL MOLECULE ACTIVATORS OF INTERFERON REGULATORY FACTOR 3 AND METHODS OF USE THEREOF” (Neuralexo, Inc., priority 2020, published 2022).

Key:
[1] = tested on: BV2 cells; assay: Gene induction in BV2 cells (qtPCR); type: cell-based, mouse; conditions: 10 ug/ml, 3 hours, compared to 5′pppRNA
Protocol: RNA was collected from cell pellets and qtPCR was performed with indicated primers. Data is depicted as mRNA fold-change versus vehicle. Values are normalized to actin and are presented as fold change over vehicle control.
Total RNA isolated from brain cortex, or RNA from cell culture, was reverse transcribed using an Omniscript Reverse Transcription kit (Qiagen). Quantitative PCR was performed using the TaqMan Gene Expression Assays (Applied Biosystems) on an ABI-prism 7700. Results were normalized to β-actin expression and analyzed relative to appropriate controls. The relative quantification of the gene of interest was determined using the comparative CT method (2^−ΔΔCt)
Since inflammatory pathways mediated by NF-κB are known to have negative effects on stroke outcome, the induction of key detrimental genes including TNF and IL-6 in response to drug treatment was evaluated. […] RNA was collected from cell pellets and qtPCR was performed with indicated primers. Values are normalized to actin and are presented as fold change over vehicle control.

[2] = tested on: ISRE-firefly luciferase reporter in RAW264.7 cells; assay: RAW264.7 ISRE-firefly luciferase reporter assay; type: cell-based, mouse
Description: Data is depicted as fold increase ISRE activity vs matched vehicle, plotted against log[agonist] (M).
To characterize a small directed subset of molecules known to activate IRF3, mouse macrophage cells (RAW264.7) containing an ISRE-firefly luciferase reporter with a constitutively active renilla luciferase internal control for normalization (Promega) was utilized. IRF3 can activate ISRE through direct binding and via feed-forward mechanisms through potent induction of IFNβ. […] Specifically, RAW264.7 cells containing ISRE firefly luciferase reporter were treated with indicated compounds for 3 hours and luciferase activity was determined.

[3] = tested on: THP1-Dual cells; assay: THP1-Dual cytotoxicity (Cell Titer Glo, ATP); type: cell-based, human; conditions: Human Reporter Cell Line THP1; read-out: Thp1 cytotox CC50
Outline: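 CC50, the concentration killing half the cells, was derived from ATP-dependent CellTiter-Glo luminescence. Cells were THP1-Dual (human) and compound was tested as an 8-point dose-response series, with viability read in the same plate.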

EC50 ([2]; Mus musculus, RAW264.7, expanded dose-response study, read-out: EC50 for activating mouse ISRE) [µM] | SMILES | induction of IRF-regulated genes RSAD2 and IFIT1 [1] | ISRE activation ([2]; RAW264.7, 3 hours post-treatment, 96-well) | CC50 [3] [µM]
~16 | Cc1ccc2c(=O)c3cccc(CC(=O)O)c3oc2c1C [DMXAA, 5,6-dimethylxanthenone-4-acetic acid] | most robust induction | most potent activators | 
 | COc1ccc(C(=O)Nc2cc(-c3nc4ccccc4s3)ccc2C)cc1[N+](=O)[O-] [ND-38] |  |  | 44.9
